Results on 2 substances are retold here after patent publication US20250075249A1, “AND-GATE ALLOSTERIC PROTEIN-BASED SWITCHES” (QUEENSLAND UNIVERSITY OF TECHNOLOGY, priority 2022, published 2025).

Assay [1] concerns M13 CaM-BP. The experiment in a line: GDH-CaM chimera activity, PMS/DCPIP assay with or without CaM-BP. The format is biochemical. The conditions noted are these: 10 nM chimera, presence vs absence of 1 μM M13 CaM-BP. Here is the method:
FIG. 11. Construction of a glucose dehydrogenase (GDH) AND gate biosensor. (A) GDH-CaM 48N activation by CaM-BP. activity analysis of a solution of 10 nM GDH-CaM 48N in the presence of 0.6 mM PMS as electron mediator and 60 μM DCPIP reporter dye in the presence of absence of 1 μM of M13 CaM-BP. (B) GDH-CaM 212N activation by CaM-BP. activity analysis of a solution of 10 nM GDH-CaM 212N in the presence of 0.6 mM PMS as electron mediator and 60 μM DCPIP reporter dye in the presence of absence of 1 μM of M13 CaM-BP. (C) GDH-CaM 48N_212N activation by CaM-BP. activity analysis of a solution of 10 nM GDH-CaM 48N_212N in the presence of 0.6 mM PMS as electron mediator and 60 μM DCPIP reporter dye in the presence of absence of 1 μM of M13 CaM-BP.
A range of insertion mutants of the enzyme glucose dehydrogenase (GDH) and calmodulin were constructed. […] The activity of GDH was monitored using 5-methylphenazinium methyl sulfate (PMS) as an electron mediator and 2,6-dichlorophenolindophenol (DCPIP) as a reporter dye, which upon reduction changes from blue to colourless. The GDH structure (PDB: 1c9u) was analysed and a library of CaM domain insertions was generated. […]
E.coli and purified to homogeneity. […] The activity of the wild type GDH as well as the GDH-CaM chimeras was monitored in the presence or absence of CaM-BP (M13). […]

The test system of assay [2] is M13 CaM-BP. The experiment in a line: BLA-CaM chimera activity, nitrocefin assay with or without CaM-BP. The format is biochemical. An excerpt:
FIG. 5. Construction of β-lactamase single insert CaM chimeras (BLA-CaM). (A) A schematic showing th β-lactamase (BLA) assay. BLA degrades the beta-lactam ring nitrocefin. which can be detected by a colour change from yellow to red, for example using a wavelength λ=482 nm (wavelengths of λ=486 nm and λ=480 nm may also be used). […] (C) Activity of purified BLA-CaM chimeras in the presence (interrupted line) or absence (solid line) of saturating concentrations of M13 peptide. The insertion position is indicated by a number and a letter denoting deleted amino acid.
FIG. 6. Construction of B-lactamase double insert CaM chimeras (2CaM-BLA). (A) Activity analysis of a solution of 250 nM BLA-CaM 41G in the presence of 50 μM nitrocefin and in the presence (interrupted line) or absence (solid line) of 1 μM of M13 CaM-BP. […]
A range of insertion mutants of the enzyme β-lactamase (BLA) and calmodulin were constructed. β-lactamase degrades the beta-lactam ring in nitrocefin, which can be detected by a colour change from yellow to red (FIG. 5A). The β-lactamase structure (PDB: 3gmw) was analysed and a range of Calmodulin (BLA-CaM) chimeras were designed. […] The activity of the wild type β-lactamase as well as the BLA-CaM chimeras was monitored in the presence or absence of CaM-BP (M13). […]

In the case of “GDH-CaM 48N_212N: Glucose dehydrogenase with calmodulin insertions at positions 48 and 212”, the dynamic range entry in the assay on M13 CaM-BP [1] is on record as “over 20 fold”.

Consider “BLA-CaM 41G_197E: β-lactamase with calmodulin insertions at positions 41 and 197”, for which the “activity retained compared to the wild type enzyme” value in the assay with M13 CaM-BP [2] (10 nM enzyme, saturating M13 CaM-BP) is reported as “about 25%”. For the same substance, the dynamic range entry in the assay on M13 CaM-BP [2] (50 μM nitrocefin, presence vs absence of M13 CaM-BP) was “over 7000 fold”.
